Patent US20250353873A1, “COMPOUNDS AND METHODS FOR MODULATING APOE EXPRESSION” (Ionis Pharmaceuticals, Inc., priority 2024, published 2025)
Strand notation (5' to 3'): a small letter for the sugar, then the base; units joined by * are phosphorothioate-linked, units joined directly phosphodiester-linked; [ ] holds rarer units or linkages, { } end groups; capitals alone tell only the bases. [ms] = mesyl phosphoramidate linkage; e = 2'-O-(2-methoxyethyl) (MOE); [5mC] = 5-methylcytosine; d = 2'-deoxy (DNA)

Key:
human APOE RNA [1] = assay: Activity in APOE C57BL/6NTac-Apoeem7250 knock-in mice, single ICV bolus, 20 weeks (Example 13); format: in vivo; conditions: single ICV bolus 300 μg, 20 weeks post treatment, normalized to mouse Ppia
Method in brief: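 Knock-in mice (n=4) given a single ICV bolus of 300 μg oligonucleotide, PBS as control. After 20 weeks, human APOE RNA in cortex and spinal cord measured by RT-qPCR, normalized to mouse Ppia, expressed as % of PBS-treated animals.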

human APOE RNA [2] = assay: Activity in APOE 1549 knock-in mice, single ICV bolus, 4 weeks (Example 8); format: in vivo; conditions: n = 2, single ICV bolus of 300 μg, four weeks post treatment, Table 18
Protocol: Modified oligonucleotides described above were tested in the 1549 APOE knock-in mouse model described above.
APOE knock-in mice were divided into groups of either 2 or 6 mice each as described in the tables below. Each mouse received a single intracerebroventricular (ICV) bolus of 300 μg of modified oligonucleotide. A group of either 3 or 6 mice received a single ICV bolus with PBS as a negative control.
Four weeks post treatment, mice were sacrificed and RNA was extracted from cortical brain tissue and spinal cord for quantitative real-time RT-PCR analysis of RNA expression of APOE using primer probe set RTS3073 (described herein above). APOE RNA levels were normalized to mouse Ppia. Mouse Ppia was amplified using primer probe set m_cyclo24 (described herein above). Results are presented as percent human APOE RNA relative to the amount of human APOE RNA in PBS treated animals, (% control). Each experiment is identified in separate tables below.

human APOE RNA [3] = assay: Dose-dependent inhibition of human APOE RNA in HepG2 cells, electroporation, 24 hours (Example 6); format: cell-based
Method in brief: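 HepG2 cells, 50,000 per well, electroporated with various oligonucleotide concentrations. APOE RNA measured with primer probe set RTS3073, normalized to GAPDH (RTS104), expressed as % of untreated control; IC50 then calculated.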

human APOE RNA [4] = assay: Activity in APOE 1549 knock-in mice, single ICV bolus, 2 weeks (Example 7); format: in vivo; conditions: single ICV bolus of 300 μg, two weeks post treatment
Protocol: Modified oligonucleotides described above were tested in APOE knock-in mice.
APOE knock-in mice (model 41549) were obtained from Taconic Biosciences. APOE knock-in mice were divided into groups of 2 mice each. Each mouse received a single intracerebroventricular (ICV) bolus of 300 μg of modified oligonucleotide. A group of 4 mice received a single ICV bolus with PBS as a negative control.
Two weeks post treatment, mice were sacrificed and RNA was extracted from cortical brain tissue and spinal cord for quantitative real-time RT-PCR analysis of RNA expression of APOE using primer probe set RTS3073 (described herein above). APOE RNA levels were normalized to mouse Ppia. Mouse Ppia was amplified using primer probe set m_cyclo24 (forward sequence TCGCCGCTTGCTGCA, designated herein as SEQ ID NO: 16; reverse sequence ATCGGCCGTGATGTCGA, designated herein as SEQ ID NO: 17; probe sequence […], designated herein as SEQ ID NO: 18). Results are presented as percent human APOE RNA relative to the amount of human APOE RNA in PBS treated animals, (% control). Each experiment is identified in separate tables below.

human APOE RNA [5] = assay: Activity in APOE C57BL/6NTac-Apoeem7250 knock-in mice, single ICV bolus, 16 weeks (Example 12); format: in vivo; conditions: single ICV bolus 300 μg, 16 weeks post treatment, normalized to mouse Ppia
Method in brief: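 Knock-in mice (3-4 per group) received one ICV bolus of 300 μg oligonucleotide, PBS as control. After 16 weeks, human APOE RNA in cortex and spinal cord measured by RT-qPCR, normalized to mouse Ppia, and reported as % of PBS control.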

human APOE RNA [6] = assay: Activity in APOE C57BL/6NTac-Apoeem7250 knock-in mice, single ICV bolus, 8 weeks (Example 11); format: in vivo; conditions: single ICV bolus 300 μg, 8 weeks post treatment, normalized to mouse Ppia
Method in brief: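 Human APOE knock-in C57BL/6NTac mice given one ICV bolus of 300 μg oligonucleotide; PBS-dosed group as control. At 8 weeks, cortex and spinal cord RNA measured by qRT-PCR (human probe RTS3073), normalized to mouse Ppia, expressed as % of PBS control.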

human APOE RNA [7] = assay: Duration of action study in APOE C57BL/6NTac-Apoeem7250 knock-in mice (Example 16); format: in vivo; conditions: 300 μg ICV
Method in brief: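 Knock-in mice (2-4 per group) received a single ICV bolus of 300 μg oligonucleotide or PBS. At various timepoints, cortex and spinal cord human APOE RNA was measured by RT-qPCR (RTS3073), normalized to mouse Ppia and expressed as % of PBS control.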

1736526: 6-10-4 MOE gapmer CTTGGTGAATCTTTATTAAA, linkages ssoooszzsssssssssss (e[5mC]*eT*eTeGeGeT*dG[ms]dA[ms]dA*dT*d[5mC]*dT*dT*dT*dA*dT*eT*eA*eA*eA) [compound 1736526]
APOE RNA (% control) Cortex (human APOE RNA [1]; cortex): 67 % control
APOE RNA (% control) Spinal Cord (human APOE RNA [1]; spinal cord): 68 % control
APOE RNA (% control) Cortex (human APOE RNA [2]): 35 % control
APOE RNA (% control) Spinal Cord (human APOE RNA [2]): 42 % control
IC50 (human APOE RNA [3]): 1150 nM
APOE RNA (% UTC) (human APOE RNA [3]; 5 nM): 89 % UTC
APOE RNA (% UTC) (human APOE RNA [3]; 13 nM): 114 % UTC
APOE RNA (% UTC) (human APOE RNA [3]; 33 nM): 100 % UTC
APOE RNA (% UTC) (human APOE RNA [3]; 82 nM): 85 % UTC
APOE RNA (% UTC) (human APOE RNA [3]; 205 nM): 71 % UTC
APOE RNA (% UTC) (human APOE RNA [3]; 512 nM): 51 % UTC
APOE RNA (% UTC) (human APOE RNA [3]; 1,280 nM): 58 % UTC
APOE RNA (% UTC) (human APOE RNA [3]; 3,200 nM): 28 % UTC
APOE RNA (% UTC) (human APOE RNA [3]; 8,000 nM): 25 % UTC
APOE RNA (% UTC) (human APOE RNA [3]; 20,000 nM): 18 % UTC

1601949: 6-10-4 MOE gapmer CTGCAATGCATTAGAAACCT, linkages sooooossssssssssoss (antisense e[5mC]*eTeGe[5mC]eAeAdT*dG*d[5mC]*dA*dT*dT*dA*dG*dA*dA*eAe[5mC]*e[5mC]*eT) [compound 1601949]
APOE RNA (% control) Cortex (human APOE RNA [4]; Table 16): 77 % control
APOE RNA (% control) Spinal Cord (human APOE RNA [4]; Table 16): 92 % control

1736521: 6-10-4 MOE gapmer CTTGGTGAATCTTTATTAAA, linkages sosssszzzsssssssoss (e[5mC]*eTeT*eG*eG*eT*dG[ms]dA[ms]dA[ms]dT*d[5mC]*dT*dT*dT*dA*dT*eTeA*eA*eA) [compound 1736521]
APOE RNA (% control) Cortex (human APOE RNA [2]): 52 % control
APOE RNA (% control) Spinal Cord (human APOE RNA [2]): 50 % control
IC50 (human APOE RNA [3]): 400 nM
APOE RNA (% UTC) (human APOE RNA [3]; 5 nM): 99 % UTC
APOE RNA (% UTC) (human APOE RNA [3]; 13 nM): 109 % UTC
APOE RNA (% UTC) (human APOE RNA [3]; 33 nM): 84 % UTC
APOE RNA (% UTC) (human APOE RNA [3]; 82 nM): 69 % UTC
APOE RNA (% UTC) (human APOE RNA [3]; 205 nM): 65 % UTC
APOE RNA (% UTC) (human APOE RNA [3]; 512 nM): 40 % UTC
APOE RNA (% UTC) (human APOE RNA [3]; 1,280 nM): 34 % UTC
APOE RNA (% UTC) (human APOE RNA [3]; 3,200 nM): 18 % UTC
APOE RNA (% UTC) (human APOE RNA [3]; 8,000 nM): 10 % UTC
APOE RNA (% UTC) (human APOE RNA [3]; 20,000 nM): 3 % UTC

1601958: 6-10-4 MOE gapmer CTTCACATTCTAAGCTCCAA, linkages sooooossssssssssoss (antisense e[5mC]*eTeTe[5mC]eAe[5mC]dA*dT*dT*d[5mC]*dT*dA*dA*dG*d[5mC]*dT*e[5mC]e[5mC]*eA*eA) [compound 1601958]
APOE RNA (% control) Cortex (human APOE RNA [4]; Table 16): 109 % control
APOE RNA (% control) Spinal Cord (human APOE RNA [4]; Table 16): 102 % control

1601957: 6-10-4 MOE gapmer TCCTCATTTTAAAGTTCTCC, linkages sooooossssssssssoss (antisense eT*e[5mC]e[5mC]eTe[5mC]eAdT*dT*dT*dT*dA*dA*dA*dG*dT*dT*e[5mC]eT*e[5mC]*e[5mC]) [compound 1601957]
APOE RNA (% control) Cortex (human APOE RNA [4]; Table 16): 101 % control
APOE RNA (% control) Spinal Cord (human APOE RNA [4]; Table 16): 90 % control

1601959: 6-10-4 MOE gapmer CCGTGTCGCTGCCCCTGGCT, linkages sooooossssssssssoss (antisense e[5mC]*e[5mC]eGeTeGeTd[5mC]*dG*d[5mC]*dT*dG*d[5mC]*d[5mC]*d[5mC]*d[5mC]*dT*eGeG*e[5mC]*eT) [compound 1601959]
APOE RNA (% control) Cortex (human APOE RNA [4]; Table 16): 107 % control
APOE RNA (% control) Spinal Cord (human APOE RNA [4]; Table 16): 85 % control

1601956: 6-10-4 MOE gapmer AAGTTCTCCAATCGACGGCT, linkages sooooossssssssssoss (antisense eA*eAeGeTeTe[5mC]dT*d[5mC]*d[5mC]*dA*dA*dT*d[5mC]*dG*dA*d[5mC]*eGeG*e[5mC]*eT) [compound 1601956]
APOE RNA (% control) Cortex (human APOE RNA [4]; Table 16): 104 % control
APOE RNA (% control) Spinal Cord (human APOE RNA [4]; Table 16): 107 % control

1601942: 6-10-4 MOE gapmer CCGTGTTCCATTTATGAGCT, linkages sooooossssssssssoss (antisense e[5mC]*e[5mC]eGeTeGeTdT*d[5mC]*d[5mC]*dA*dT*dT*dT*dA*dT*dG*eAeG*e[5mC]*eT) [compound 1601942]
APOE RNA (% control) Cortex (human APOE RNA [4]; Table 16): 84 % control
APOE RNA (% control) Spinal Cord (human APOE RNA [4]; Table 16): 91 % control

1652902: 6-10-4 MOE gapmer CTTGGTGAATCTTTATTAAA, linkages sooooossssssssssoss (antisense e[5mC]*eTeTeGeGeTdG*dA*dA*dT*d[5mC]*dT*dT*dT*dA*dT*eTeA*eA*eA) [compound 1652902]
APOE RNA (% control) Cortex (human APOE RNA [4]; Table 17): 31 % control
APOE RNA (% control) Spinal Cord (human APOE RNA [4]; Table 17): 171 % control
APOE RNA (% control) Cortex (human APOE RNA [5]; cortex): 105 % control
APOE RNA (% control) Spinal Cord (human APOE RNA [5]; spinal cord): 60 % control
APOE RNA (% control) Cortex (human APOE RNA [6]; cortex): 44 % control
APOE RNA (% control) Spinal Cord (human APOE RNA [6]; spinal cord): 12 % control
APOE RNA (% control) Cortex (human APOE RNA [7]; 14 days post-dose): 43 % control
APOE RNA (% control) Cortex (human APOE RNA [7]; 112 days post-dose): 75 % control
APOE RNA (% control) Spinal Cord (human APOE RNA [7]; 14 days post-dose): 27 % control
APOE RNA (% control) Spinal Cord (human APOE RNA [7]; 112 days post-dose): 32 % control
IC50 (human APOE RNA [3]): 70 nM
APOE RNA (% UTC) (human APOE RNA [3]; 5 nM): 88 % UTC
APOE RNA (% UTC) (human APOE RNA [3]; 13 nM): 94 % UTC
APOE RNA (% UTC) (human APOE RNA [3]; 33 nM): 54 % UTC
APOE RNA (% UTC) (human APOE RNA [3]; 82 nM): 44 % UTC
APOE RNA (% UTC) (human APOE RNA [3]; 205 nM): 26 % UTC
APOE RNA (% UTC) (human APOE RNA [3]; 512 nM): 19 % UTC
APOE RNA (% UTC) (human APOE RNA [3]; 1,280 nM): 10 % UTC
APOE RNA (% UTC) (human APOE RNA [3]; 3,200 nM): 4 % UTC
APOE RNA (% UTC) (human APOE RNA [3]; 8,000 nM): 3 % UTC
APOE RNA (% UTC) (human APOE RNA [3]; 20,000 nM): 2 % UTC

1601943: 6-10-4 MOE gapmer GTCCTCATTTTAAAGTTCTC, linkages sooooossssssssssoss (antisense eG*eTe[5mC]e[5mC]eTe[5mC]dA*dT*dT*dT*dT*dA*dA*dA*dG*dT*eTe[5mC]*eT*e[5mC]) [compound 1601943]
APOE RNA (% control) Cortex (human APOE RNA [4]; Table 16): 115 % control
APOE RNA (% control) Spinal Cord (human APOE RNA [4]; Table 16): 113 % control

1601948: 6-10-4 MOE gapmer GTTCAAATTCCATCCCCCCA, linkages sooooossssssssssoss (antisense eG*eTeTe[5mC]eAeAdA*dT*dT*d[5mC]*d[5mC]*dA*dT*d[5mC]*d[5mC]*d[5mC]*e[5mC]e[5mC]*e[5mC]*eA) [compound 1601948]
APOE RNA (% control) Cortex (human APOE RNA [4]; Table 16): 112 % control
APOE RNA (% control) Spinal Cord (human APOE RNA [4]; Table 16): 105 % control
